These results are taken from patent US11261186B2, “Biaryl derivative as GPR120 agonist” (LG CHEM, LTD., priority 2014, dated 2022).

What is called pEC50 is −log10 of the EC50, conventionally taken in molar units.

pEC50: −log10 of the molar value. A value given as a limit tells only on which side of the number the result lay.

This assay concerns the target T1, hGPR120 (Homo sapiens, UniProt Q5NUL3).
T1 construct: expressed in transfected cells; host or cells: CHO-K1
T1 sequence (Q5NUL3 1-361): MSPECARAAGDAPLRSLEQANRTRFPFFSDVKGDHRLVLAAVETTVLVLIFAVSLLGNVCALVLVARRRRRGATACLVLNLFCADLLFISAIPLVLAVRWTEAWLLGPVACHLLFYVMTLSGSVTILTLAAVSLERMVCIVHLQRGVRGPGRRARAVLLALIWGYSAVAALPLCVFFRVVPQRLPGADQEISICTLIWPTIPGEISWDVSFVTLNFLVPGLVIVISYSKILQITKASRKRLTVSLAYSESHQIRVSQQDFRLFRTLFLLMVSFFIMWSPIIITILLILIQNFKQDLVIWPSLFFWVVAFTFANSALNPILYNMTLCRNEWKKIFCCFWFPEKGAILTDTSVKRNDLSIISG
Put plainly: Measurement of Activity of GPR120 Agonist (Cell-Based Assay), Calcium 5 dye fluorescence. As to conditions: CHO-K1 cells expressing Ga16 and hGPR120. On the procedure: CHO-K1 cells expressing Ga16 and hGPR120 were dispensed into each well of a 96-well plate (3×10^4 cells/100 μl/well) and then incubated in 5% CO2, 37° C. incubator for 18 hours. Each well was treated with 100 μl of Calcium 5 dye (Molecular Devices) solution including 2% DMSO and then incubated in 5% CO2, 37° C. incubator for 1 hour. Serially diluted GPR120 agonists were prepared to a final concentration of 0.5% DMSO in a 96-well plate. Each well was treated with 50 μl of the agonist compounds using Plexstation II, and then fluorescence was measured at Ex 485 nm and Em 525 nm.
Fluorescence increased by the serially diluted GPR120 agonists is calculated as a relative percent (%) value based on the fluorescence represented by the treatment of 1% DMSO only. […] The calculation of measurement was carried out by using statistical software (Prizm).
Activity is denoted based on the following criteria: […]

Regarding `Oc1ccc(COc2c(F)cc(-c3cccnc3OC3CCCC3)cc2F)cn1` [Example 79, 5-[[4-[2-(cyclopentoxy)-3-pyridyl]-2,6-difluoro-phenoxy]methyl]pyridin-2-ol], the negative logarithm of the EC50 (pEC50) is 4.70 to 5.70. In the case of `Oc1cc(CSc2ccc(-c3cccnc3OC3CCCC3)cc2)on1` [Example 81, 5-[[4-[2-(cyclopentoxy)-3-pyridyl]phenyl]sulfanylmethyl]isoxazol-3-ol], the pEC50 was over 6.70. On to `Oc1cc(CSc2c(F)cc(-c3cccnc3OC3CCCC3)cc2F)on1` [Example 83, 5-[[4-[2-(cyclopentoxy)-3-pyridyl]-2,6-difluoro-phenyl]sulfanylmethyl]isoxazol-3-ol], for which the pEC50 is over 6.70. Take `Oc1cc(CNc2c(F)cc(-c3cccnc3OC3CCCC3)cc2F)on1` [Example 84, 5-[[4-[2-(cyclopentoxy)-3-pyridyl]-2,6-difluoro-anilino]methyl]isoxazol-3-ol]: the pEC50 is over 6.70. For `CN(Cc1cc(O)no1)c1ccc(-c2cccnc2OC2CCCC2)cc1` [Example 86, 5-[[4-[2-(cyclopentoxy)-3-pyridyl]-N-methyl-anilino]methyl]isoxazol-3-ol], the pEC50 is over 6.70. For the molecule `Oc1cc(CCc2c(F)cc(-c3cccnc3OC3CCCC3)cc2F)on1` [Example 87, 5-[2-[4-[2-(cyclopentoxy)-3-pyridyl]-2,6-difluoro-phenyl]ethyl]isoxazol-3-ol], the pEC50 was over 6.70.

As to `CC(Cc1cc(O)no1)c1c(F)cc(-c2cccnc2OC2CCCC2)cc1F` (centres unmarked) [Example 88, 5-[2-[4-[2-(cyclopentoxy)-3-pyridyl]-2,6-difluoro-phenyl]propyl]isoxazol-3-ol], the pEC50 was over 6.70. The result for `Oc1cc(CCOc2c(F)cc(-c3cccnc3OC3CCCC3)cc2F)on1` [Example 89, 5-[2-[4-[2-(cyclopentoxy)-3-pyridyl]-2,6-difluoro-phenoxy]ethyl]isoxazol-3-ol] reads over 6.70. With `Oc1cc(CCNc2c(F)cc(-c3cccnc3OC3CCCC3)cc2F)on1` [Example 90, 5-[2-[4-[2-(cyclopentoxy)-3-pyridyl]-2,6-difluoro-anilino]ethyl]isoxazol-3-ol], the pEC50 is 5.70 to 6.70. The figure for `O=C(O)Cc1cnn(-c2ccc(-c3cccnc3SC3CCC3)cc2)c1` [Example 93, 2-[1-[4-(2-cyclobutylsulfanyl-3-pyridyl)phenyl]pyrazol-4-yl]acetic acid] is 4.70 to 5.70; for `O=C(O)CCCCNc1c(F)cc(-c2cccnc2OC2CCCC2)cc1F` [Example 94, 5-[4-[2-(cyclopentoxy)-3-pyridyl]-2,6-difluoro-anilino]pentanoic acid] it is over 6.70.

In the case of `CCN(CCCCC(=O)O)c1c(F)cc(-c2cccnc2OC2CCCC2)cc1F` [Example 95, 5-[4-[2-(cyclopentoxy)-3-pyridyl]-N-ethyl-2,6-difluoro-anilino]pentanoic acid], the pEC50 was 5.70 to 6.70. For `CC(C)Sc1cccc(-c2cc(F)c(NCCCCC(=O)O)c(F)c2)n1` [Example 96, 5-[2,6-difluoro-4-(6-isopropylsulfanyl-2-pyridyl)anilino]pentanoic acid], the pEC50 is 5.70 to 6.70. As to `CC(C)Sc1ncccc1-c1cc(F)c(NCCCCC(=O)O)c(F)c1` [Example 97, 5-[2,6-difluoro-4-(2-isopropylsulfanyl-3-pyridyl)anilino]pentanoic acid], the pEC50 is over 6.70.

Take `O=C(O)CCCCNc1c(F)cc(-c2cccc(OCC3CC3)n2)cc1F` [Example 98, 5-[4-[6-(cyclopropylmethoxy)-2-pyridyl]-2,6-difluoro-anilino]pentanoic acid]: the pEC50 is over 6.70.

Consider `O=C(O)CCCCNc1c(F)cc(-c2cccnc2OCC2CC2)cc1F` [Example 99, 5-[4-[2-(cyclopropylmethoxy)-3-pyridyl]-2,6-difluoro-anilino]pentanoic acid], for which the pEC50 was over 6.70. For `O=C(O)CC1CCN(c2c(F)cc(-c3cccnc3SC3CCCC3)cc2F)CC1` [Example 100, 2-[1-[4-(2-cyclopentylsulfanyl-3-pyridyl)-2,6-difluoro-phenyl]-4-piperidyl]acetic acid], the pEC50 was over 6.70.

With `CN(CCCCC(=O)O)c1c(F)cc(-c2cccc(OCC3CC3)n2)cc1F` [Example 101, 5-[4-[6-(cyclopropylmethoxy)-2-pyridyl]-2,6-difluoro-N-methyl-anilino]pentanoic acid], the negative logarithm of the EC50 (pEC50) was over 6.70. As to `O=C(O)CC1CCN(c2c(F)cc(-c3cccnc3OC3CCCC3)cc2F)CC1` [Example 102, 2-[1-[4-[2-(cyclopentoxy)-3-pyridyl]-2,6-difluoro-phenyl]-4-piperidyl]acetic acid], the pEC50 was over 6.70.

Consider `O=C(O)CC1CCN(c2c(F)cc(-c3cccnc3OC3CCOC3)cc2F)CC1` (centres unmarked) [Example 103, 2-[1-[2,6-difluoro-4-(2-tetrahydrofuran-3-yloxy-3-pyridyl)phenyl]-4-piperidyl]acetic acid], for which the pEC50 is 5.70 to 6.70.

For `CC(C)Sc1ncccc1-c1cc(F)c(N2CCC(CC(=O)O)CC2)c(F)c1` [Example 104, 2-[1-[2,6-difluoro-4-(2-isopropylsulfanyl-3-pyridyl)phenyl]-4-piperidyl]acetic acid], the pEC50 was over 6.70. For `CC(C)Sc1cccc(-c2cc(F)c(N3CCC(CC(=O)O)CC3)c(F)c2)n1` [Example 105, 2-[1-[2,6-difluoro-4-(6-isopropylsulfanyl-2-pyridyl)phenyl]-4-piperidyl]acetic acid], the pEC50 was over 6.70.

Consider `O=C(O)CC1CCN(c2c(F)cc(-c3cccc(OCC4CC4)n3)cc2F)CC1` [Example 106, 2-[1-[4-[6-(cyclopropylmethoxy)-2-pyridyl]-2,6-difluoro-phenyl]-4-piperidyl]acetic acid], for which the negative logarithm of the EC50 (pEC50) is over 6.70. The result for `CC(C)Sc1ncccc1-c1cc(F)c(N2CCCC(CC(=O)O)C2)c(F)c1` (centres unmarked) [Example 108, 2-[1-[2,6-difluoro-4-(2-isopropylsulfanyl-3-pyridyl)phenyl]-3-piperidyl]acetic acid] reads 4.70 to 5.70.

On to `CC(C)Sc1ncccc1-c1cc(F)c(N2CC(CC(=O)O)C2)c(F)c1` [Example 109, 2-[1-[2,6-difluoro-4-(2-isopropylsulfanyl-3-pyridyl)phenyl]azetidin-3-yl]acetic acid], for which the pEC50 was over 6.70. `CC(C)Sc1ncccc1-c1cc(F)c(N2CCC3(CC2)CC3C(=O)O)c(F)c1` (centres unmarked) [Example 110, 6-[2,6-difluoro-4-(2-isopropylsulfanyl-3-pyridyl)phenyl]-6-azaspiro[2.5]octan-2-carboxylic acid]: the pEC50 is 5.70 to 6.70. Consider `CC(C)Sc1cccc(-c2cc(F)c(N3CCC4(CC3)CC4C(=O)O)c(F)c2)n1` (centres unmarked) [Example 111, 6-[2,6-difluoro-4-(6-isopropylsulfanyl-2-pyridyl)phenyl]-6-azaspiro[2.5]octan-2-carboxylic acid], for which the pEC50 is 4.70 to 5.70. With `O=C(O)CC1CN(c2c(F)cc(-c3cccnc3SC3CCCC3)cc2F)C1` [Example 112, 2-[1-[4-(2-cyclopentylsulfanyl-3-pyridyl)-2,6-difluoro-phenyl]azetidin-3-yl]acetic acid], the pEC50 is over 6.70. The result for `O=C(O)CC1CN(c2c(F)cc(-c3cccnc3OC3CCCC3)cc2F)C1` [Example 113, 2-[1-[4-[2-(cyclopentoxy)-3-pyridyl]-2,6-difluoro-phenyl]azetidin-3-yl]acetic acid] reads over 6.70.
